Columns and labels:
[1] = target: Vasoactive intestinal polypeptide receptor 1 (Homo sapiens, UniProt P32241); assay: Displacement of [125I]VIP from human recombinant VPAC1 receptor after 60 mins by scintillation counting analysis
Mu-type opioid receptor = Mu-type opioid receptor (Homo sapiens, UniProt P35372); assay: Displacement of [3H]DAMGO from human recombinant mu receptor at 10 uM after 120 mins by scintillation counting analysis relative to control
[2] = target: Sodium-dependent dopamine transporter (Homo sapiens) (UniProt Q01959); assay: Displacement of [3H][…] from recombinant human dopamine transporter at 1 uM after 120 mins by scintillation counting analysis relative to control
Adenosine receptor A3 = Adenosine receptor A3 (Homo sapiens, UniProt P0DMS8); assay: Displacement of [125I]AB-MECA from human recombinant adenosine A3 receptor after 120 mins by scintillation counting analysis
[3] = target: 5-hydroxytryptamine receptor 7 (Homo sapiens, UniProt P34969); assay: Displacement of [3H]LSD from human recombinant 5-HT7 receptor at 10 uM after 120 mins by scintillation counting analysis relative to control
[4] = target: Serine/threonine-protein kinase Chk2 (Homo sapiens) (UniProt O96017); assay: Inhibition of recombinant full length His-tagged human CHK2 expressed in baculovirus expression system at 10 uM in presence of ATP relative to control
[5] = target: Adrenergic receptor alpha-1 (Rattus norvegicus, UniProt P15823+P23944+P43140); assay: Displacement of [3H]-prazosin from rat alpha1 adrenoceptor after 60 mins by scintillation counting analysis; assay type: protein assay
[6] = target: Delta-type opioid receptor (Homo sapiens, UniProt P41143); assay: Displacement of [3H]DADLE from human recombinant delta opioid receptor at 10 uM after 60 mins by scintillation counting analysis relative to control
[7] = target: Small conductance calcium-activated potassium channel (Rattus norvegicus) (UniProt P70604+P70606+P70605); assay: Displacement of [125I]apamin from rat brain SkCa channel at 1 uM after 60 mins by scintillation counting analysis relative to control
[8] = target: T1, Nuclear receptor ROR-gamma (Homo sapiens, UniProt P51449); assay: Inverse agonist activity at RORgammat in human whole blood assessed as reduction in IL17A production
T1 sequence (P51449 whole entry): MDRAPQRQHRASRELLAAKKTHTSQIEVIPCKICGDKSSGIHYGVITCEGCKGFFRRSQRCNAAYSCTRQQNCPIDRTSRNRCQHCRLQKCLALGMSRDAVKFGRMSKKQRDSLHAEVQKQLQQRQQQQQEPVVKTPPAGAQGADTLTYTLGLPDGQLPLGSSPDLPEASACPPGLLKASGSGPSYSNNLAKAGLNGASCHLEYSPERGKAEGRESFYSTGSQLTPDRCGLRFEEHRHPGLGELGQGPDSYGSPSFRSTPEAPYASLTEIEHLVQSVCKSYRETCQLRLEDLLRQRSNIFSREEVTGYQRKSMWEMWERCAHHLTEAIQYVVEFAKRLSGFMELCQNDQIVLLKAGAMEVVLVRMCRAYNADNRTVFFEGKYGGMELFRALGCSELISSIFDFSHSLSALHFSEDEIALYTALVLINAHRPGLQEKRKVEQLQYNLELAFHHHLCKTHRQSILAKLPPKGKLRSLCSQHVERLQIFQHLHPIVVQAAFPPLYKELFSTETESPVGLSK

[9] = target: Adrenergic receptor alpha-2 (Rattus norvegicus) (UniProt P22086+P19328+P22909); assay: Displacement of [3H]-RX 821002 from rat alpha2 adrenoceptor at 10 uM after 60 mins by scintillation counting analysis relative to control; assay type: protein assay
[10] = target: T1, Nuclear receptor ROR-gamma; assay: Binding affinity to recombinant human RORgamma LBD (237 to 497 residues) expressed in Escherichia coli BL21 (DE3) GOLD by 1,8-ANS dye-based thermofluor assay
[11] = AUC (0 to infinity) in Sprague-Dawley rat at 1 mg/kg, iv; assay type: ADME, organism-based; design: dose 1 mg/kg, time infinity, route intravenous; settings: in vivo
[12] = target: 5-hydroxytryptamine receptor 1A (Homo sapiens, UniProt P08908); assay: Displacement of [3H]8-OH-DPAT from recombinant human 5-HT1A receptor after 60 mins by scintillation counting analysis
Vasopressin V1a receptor = Vasopressin V1a receptor (Homo sapiens, UniProt P37288); assay: Displacement of [3H]AVP from human recombinant V1a receptor at 10 uM after 60 mins by scintillation counting analysis relative to control
[13] = Tmax in Sprague-Dawley rat at 5 mg/kg, po; assay type: ADME, organism-based; settings: in vivo
Cytochrome P450 3A4 = Cytochrome P450 3A4 (Homo sapiens, UniProt P08684); assay: Inhibition of CYP3A4 (unknown origin); assay type: ADME
[14] = target: T2, 5-hydroxytryptamine receptor 5A (Homo sapiens, UniProt P47898); assay: Displacement of [3H]LSD from human recombinant 5-HT5a receptor after 120 mins by scintillation counting analysis
[15] = target: Platelet-derived growth factor receptor beta (Homo sapiens) (UniProt P09619); assay: Inhibition of recombinant His-tagged human PDGFRbeta (558 to 1106 residues) cytoplasmic domain expressed in baculovirus expression system at 10 uM in presence of ATP relative to control
[16] = Cmax in Sprague-Dawley rat at 5 mg/kg, po; assay type: ADME, organism-based; design: dose 5 mg/kg, route oral; settings: in vivo
[17] = target: Muscarinic acetylcholine receptor M3 (Homo sapiens, UniProt P20309); assay: Displacement of [3H]4-DAMP from human recombinant M3 receptor at 1 uM after 60 mins by scintillation counting analysis relative to control
[18] = target: Receptor-type tyrosine-protein kinase FLT3 (Homo sapiens) (UniProt P36888); assay: Inhibition of recombinant His-tagged human FLT3 (564 to 958 residues) cytoplasmic domain expressed in baculovirus expression system at 10 uM in presence of ATP relative to control
[19] = target: T2, 5-hydroxytryptamine receptor 5A; assay: Displacement of [3H]LSD from human recombinant 5-HT5a receptor at 10 uM after 120 mins by scintillation counting analysis relative to control
[20] = target: 5-hydroxytryptamine receptor 1B (Rattus norvegicus, UniProt P28564); assay: Displacement of [125I]-CYP from rat brain 5-HT1B receptor after 120 mins by scintillation counting analysis
[21] = target: 5-hydroxytryptamine receptor 1B (Rattus norvegicus) (UniProt P28564); assay: Displacement of [125I]-CYP from rat brain 5-HT1B receptor at 1 uM after 120 mins by scintillation counting analysis relative to control
[22] = target: Sodium-dependent noradrenaline transporter (Homo sapiens, UniProt P23975); assay: Displacement of [3H]nisoxetine from recombinant human norepinephrine transporter at 10 uM after 120 mins by scintillation counting analysis relative to control
[23] = target: Neurotensin receptor type 1 (Homo sapiens, UniProt P30989); assay: Displacement of [125I]Tyr3-neurotensin from human recombinant NTS1 receptor at 1 uM after 120 mins by scintillation counting analysis relative to control
[24] = target: Cholecystokinin receptor type A (Homo sapiens, UniProt P32238); assay: Displacement of [125I]CCK-8s from human recombinant CCK1 receptor after 60 mins by scintillation counting analysis
[25] = target: Adrenergic receptor alpha-1 (Rattus norvegicus) (UniProt P15823+P23944+P43140); assay: Displacement of [3H]-prazosin from rat alpha1 adrenoceptor at 1 uM after 60 mins by scintillation counting analysis relative to control; assay type: protein assay

T2 sequence (P47898 whole entry, the tested form may be a part): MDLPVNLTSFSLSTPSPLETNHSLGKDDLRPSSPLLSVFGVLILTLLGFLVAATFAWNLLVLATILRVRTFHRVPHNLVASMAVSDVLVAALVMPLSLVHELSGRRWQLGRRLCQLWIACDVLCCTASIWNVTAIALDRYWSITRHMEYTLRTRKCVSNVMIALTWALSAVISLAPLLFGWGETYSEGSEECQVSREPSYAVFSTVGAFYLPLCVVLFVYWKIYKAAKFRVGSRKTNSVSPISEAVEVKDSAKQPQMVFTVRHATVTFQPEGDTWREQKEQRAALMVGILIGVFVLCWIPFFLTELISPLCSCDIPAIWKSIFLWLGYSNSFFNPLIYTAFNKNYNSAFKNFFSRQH
Mu-type opioid receptor, sequence (P35372 whole entry): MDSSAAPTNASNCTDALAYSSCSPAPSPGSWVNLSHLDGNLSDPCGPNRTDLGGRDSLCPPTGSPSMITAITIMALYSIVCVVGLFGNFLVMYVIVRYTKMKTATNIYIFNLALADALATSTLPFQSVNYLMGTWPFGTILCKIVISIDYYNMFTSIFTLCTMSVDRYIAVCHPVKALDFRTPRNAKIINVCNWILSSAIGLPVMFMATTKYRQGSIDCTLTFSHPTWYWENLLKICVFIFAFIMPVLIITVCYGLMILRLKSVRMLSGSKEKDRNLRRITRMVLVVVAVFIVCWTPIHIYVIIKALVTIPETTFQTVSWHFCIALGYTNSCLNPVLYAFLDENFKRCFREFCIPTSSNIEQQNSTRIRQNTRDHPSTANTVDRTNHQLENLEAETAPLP
Platelet-derived growth factor receptor beta (Homo sapiens), sequence (P09619 whole entry, the tested form may be a part): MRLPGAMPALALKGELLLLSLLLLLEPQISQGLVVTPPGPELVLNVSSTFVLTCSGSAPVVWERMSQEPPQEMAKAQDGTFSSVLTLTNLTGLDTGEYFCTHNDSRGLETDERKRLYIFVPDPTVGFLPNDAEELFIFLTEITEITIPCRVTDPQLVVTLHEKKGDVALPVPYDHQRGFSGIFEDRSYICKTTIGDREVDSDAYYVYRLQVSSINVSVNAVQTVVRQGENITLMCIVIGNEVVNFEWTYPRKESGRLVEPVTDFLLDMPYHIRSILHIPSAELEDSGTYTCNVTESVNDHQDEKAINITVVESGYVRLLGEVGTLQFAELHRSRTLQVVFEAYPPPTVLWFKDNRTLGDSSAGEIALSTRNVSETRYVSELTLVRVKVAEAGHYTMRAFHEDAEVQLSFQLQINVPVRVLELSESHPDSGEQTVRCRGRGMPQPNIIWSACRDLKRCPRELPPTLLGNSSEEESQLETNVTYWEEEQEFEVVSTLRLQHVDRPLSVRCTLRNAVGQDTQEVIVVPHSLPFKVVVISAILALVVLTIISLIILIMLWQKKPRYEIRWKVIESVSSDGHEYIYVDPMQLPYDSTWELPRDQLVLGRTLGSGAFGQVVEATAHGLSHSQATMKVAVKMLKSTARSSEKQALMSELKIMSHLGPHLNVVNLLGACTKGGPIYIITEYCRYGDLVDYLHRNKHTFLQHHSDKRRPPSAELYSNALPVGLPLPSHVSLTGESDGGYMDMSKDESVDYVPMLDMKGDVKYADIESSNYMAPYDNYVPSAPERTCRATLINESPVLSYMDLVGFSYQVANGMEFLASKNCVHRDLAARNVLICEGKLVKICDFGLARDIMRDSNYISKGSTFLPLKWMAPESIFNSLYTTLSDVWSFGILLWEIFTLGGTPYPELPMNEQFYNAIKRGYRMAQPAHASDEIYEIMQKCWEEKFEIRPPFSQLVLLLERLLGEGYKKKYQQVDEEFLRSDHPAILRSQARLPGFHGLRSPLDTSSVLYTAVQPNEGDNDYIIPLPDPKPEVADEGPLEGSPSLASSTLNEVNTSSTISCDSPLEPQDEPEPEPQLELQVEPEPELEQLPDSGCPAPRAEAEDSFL
Cholecystokinin receptor type A, sequence (P32238 whole entry): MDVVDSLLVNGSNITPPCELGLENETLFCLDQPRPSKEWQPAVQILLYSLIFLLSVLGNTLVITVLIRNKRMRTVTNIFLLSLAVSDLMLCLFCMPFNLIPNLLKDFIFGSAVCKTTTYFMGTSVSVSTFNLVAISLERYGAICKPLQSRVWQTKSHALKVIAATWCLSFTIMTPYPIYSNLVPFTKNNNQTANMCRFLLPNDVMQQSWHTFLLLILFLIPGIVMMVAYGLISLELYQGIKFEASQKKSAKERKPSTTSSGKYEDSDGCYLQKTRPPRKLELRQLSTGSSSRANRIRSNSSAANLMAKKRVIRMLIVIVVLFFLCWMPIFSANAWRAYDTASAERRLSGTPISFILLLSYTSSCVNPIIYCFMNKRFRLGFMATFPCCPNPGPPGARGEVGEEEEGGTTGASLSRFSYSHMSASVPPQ
5-hydroxytryptamine receptor 1A, sequence (P08908 whole entry): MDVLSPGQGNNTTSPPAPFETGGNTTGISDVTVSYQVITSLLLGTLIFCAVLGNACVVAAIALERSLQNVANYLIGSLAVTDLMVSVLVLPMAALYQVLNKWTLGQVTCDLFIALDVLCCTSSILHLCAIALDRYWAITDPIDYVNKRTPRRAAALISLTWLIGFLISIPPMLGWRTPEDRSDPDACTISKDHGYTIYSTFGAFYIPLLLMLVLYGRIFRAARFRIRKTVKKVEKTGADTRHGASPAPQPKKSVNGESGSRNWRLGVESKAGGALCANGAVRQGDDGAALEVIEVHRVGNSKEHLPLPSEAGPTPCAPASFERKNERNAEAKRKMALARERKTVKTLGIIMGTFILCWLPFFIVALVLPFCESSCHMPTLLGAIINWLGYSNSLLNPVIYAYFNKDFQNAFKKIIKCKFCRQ
Adenosine receptor A3, sequence (P0DMS8 whole entry): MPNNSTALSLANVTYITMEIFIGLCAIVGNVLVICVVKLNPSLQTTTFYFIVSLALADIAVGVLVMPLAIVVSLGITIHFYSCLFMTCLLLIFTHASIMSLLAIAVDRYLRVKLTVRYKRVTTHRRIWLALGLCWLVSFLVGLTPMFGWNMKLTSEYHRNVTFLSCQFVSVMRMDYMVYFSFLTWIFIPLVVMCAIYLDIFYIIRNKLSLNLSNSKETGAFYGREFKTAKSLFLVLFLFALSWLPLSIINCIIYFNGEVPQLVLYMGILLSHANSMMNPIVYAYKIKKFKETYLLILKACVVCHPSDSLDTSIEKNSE
Neurotensin receptor type 1, sequence (P30989 whole entry): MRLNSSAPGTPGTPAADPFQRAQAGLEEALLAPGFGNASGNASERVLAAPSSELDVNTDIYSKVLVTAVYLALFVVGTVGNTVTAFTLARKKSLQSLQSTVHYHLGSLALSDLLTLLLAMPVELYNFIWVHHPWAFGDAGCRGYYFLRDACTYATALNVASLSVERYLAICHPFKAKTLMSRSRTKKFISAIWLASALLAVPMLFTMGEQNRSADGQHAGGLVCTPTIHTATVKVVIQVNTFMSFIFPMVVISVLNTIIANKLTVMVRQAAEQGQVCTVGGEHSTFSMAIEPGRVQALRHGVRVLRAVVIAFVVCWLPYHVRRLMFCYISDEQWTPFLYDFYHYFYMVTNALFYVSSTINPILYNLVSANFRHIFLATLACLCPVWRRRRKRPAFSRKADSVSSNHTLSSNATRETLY
Serine/threonine-protein kinase Chk2 (Homo sapiens), sequence (O96017 whole entry): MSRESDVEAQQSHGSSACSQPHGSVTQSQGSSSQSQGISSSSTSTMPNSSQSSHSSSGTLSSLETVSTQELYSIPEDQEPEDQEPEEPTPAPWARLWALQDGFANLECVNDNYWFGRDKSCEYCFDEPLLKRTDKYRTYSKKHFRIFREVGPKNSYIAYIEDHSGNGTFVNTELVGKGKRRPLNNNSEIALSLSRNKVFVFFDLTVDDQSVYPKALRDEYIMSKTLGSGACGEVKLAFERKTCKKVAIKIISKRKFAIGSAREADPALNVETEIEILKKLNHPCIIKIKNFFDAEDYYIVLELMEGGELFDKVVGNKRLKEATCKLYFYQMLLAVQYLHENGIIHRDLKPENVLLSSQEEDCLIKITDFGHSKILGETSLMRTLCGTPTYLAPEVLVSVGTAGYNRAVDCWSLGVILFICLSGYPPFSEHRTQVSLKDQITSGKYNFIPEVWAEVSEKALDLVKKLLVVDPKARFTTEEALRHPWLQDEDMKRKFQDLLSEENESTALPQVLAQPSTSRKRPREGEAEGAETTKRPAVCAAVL
Vasopressin V1a receptor, sequence (P37288 whole entry, looked up): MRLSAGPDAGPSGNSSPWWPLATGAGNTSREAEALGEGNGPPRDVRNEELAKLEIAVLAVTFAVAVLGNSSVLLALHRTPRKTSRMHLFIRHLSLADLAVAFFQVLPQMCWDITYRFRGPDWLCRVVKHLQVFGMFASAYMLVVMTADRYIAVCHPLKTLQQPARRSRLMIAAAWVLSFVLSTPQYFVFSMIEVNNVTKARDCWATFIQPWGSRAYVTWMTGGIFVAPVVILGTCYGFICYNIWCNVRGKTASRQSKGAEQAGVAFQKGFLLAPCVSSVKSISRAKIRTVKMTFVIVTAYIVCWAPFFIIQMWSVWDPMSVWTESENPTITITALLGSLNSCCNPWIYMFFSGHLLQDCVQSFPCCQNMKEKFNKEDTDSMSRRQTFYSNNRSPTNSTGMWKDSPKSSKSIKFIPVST
Delta-type opioid receptor, sequence (P41143 whole entry): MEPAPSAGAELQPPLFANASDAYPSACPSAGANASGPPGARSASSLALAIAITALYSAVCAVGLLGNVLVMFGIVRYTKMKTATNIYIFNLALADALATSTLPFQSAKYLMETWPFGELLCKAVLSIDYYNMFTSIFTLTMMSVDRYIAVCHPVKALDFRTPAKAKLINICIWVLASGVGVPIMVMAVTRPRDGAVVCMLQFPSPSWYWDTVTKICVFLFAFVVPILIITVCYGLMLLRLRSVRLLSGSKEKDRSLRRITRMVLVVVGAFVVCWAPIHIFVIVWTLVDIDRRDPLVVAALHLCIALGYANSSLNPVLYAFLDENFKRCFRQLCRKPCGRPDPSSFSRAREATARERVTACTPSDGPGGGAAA

SMILES: CC(C)(C)NS(=O)(=O)c1ccc(-c2sc(C(=O)N[C@H]3C[C@H](C(=O)O)C3)nc2CC2CCCCC2)c2ccccc12
- IC50 [1]: 0.47 nM
- inhibition (Mu-type opioid receptor): 12%
- inhibition [2]: 18%
- IC50 (Adenosine receptor A3): 0.17 nM
- inhibition [3]: 10%
- inhibition [4]: -1%
- IC50 [5]: 0.25 nM
- inhibition [6]: 22%
- inhibition [7]: < 10%
- EC50 [8]: 82 nM
- inhibition [9]: < 10%
- Kd [10]: 0.12 nM
- AUC(0-inf) [11]: 325 ng·h/mL
- IC50 [12]: 0.43 nM
- inhibition (Vasopressin V1a receptor): 10%
- Tmax [13]: 48 min
- INH (Cytochrome P450 3A4): > 10 µM
- IC50 [14]: 106 nM
- inhibition [15]: -4%
- Cmax [16]: 130 ng/mL
- inhibition [17]: < 10%
- inhibition [18]: 0%
- inhibition [19]: 85%
- IC50 [20]: 14 nM
- inhibition [21]: < 10%
- inhibition [22]: 27%
- inhibition [23]: < 10%
- IC50 [24]: 0.12 nM
- inhibition [25]: < 10%
